# Measured values from patent US9145393B2, “Arylpyridinone ITK inhibitors for treating inflammation and cancer” (Confluence Life Sciences, Inc., priority 2014, dated 2015).
# Structures can show the parent of a compound that is named as a salt.
# Biological target: T1, ITK (Homo sapiens, UniProt Q08881)
# T1 sequence (Q08881 1-620): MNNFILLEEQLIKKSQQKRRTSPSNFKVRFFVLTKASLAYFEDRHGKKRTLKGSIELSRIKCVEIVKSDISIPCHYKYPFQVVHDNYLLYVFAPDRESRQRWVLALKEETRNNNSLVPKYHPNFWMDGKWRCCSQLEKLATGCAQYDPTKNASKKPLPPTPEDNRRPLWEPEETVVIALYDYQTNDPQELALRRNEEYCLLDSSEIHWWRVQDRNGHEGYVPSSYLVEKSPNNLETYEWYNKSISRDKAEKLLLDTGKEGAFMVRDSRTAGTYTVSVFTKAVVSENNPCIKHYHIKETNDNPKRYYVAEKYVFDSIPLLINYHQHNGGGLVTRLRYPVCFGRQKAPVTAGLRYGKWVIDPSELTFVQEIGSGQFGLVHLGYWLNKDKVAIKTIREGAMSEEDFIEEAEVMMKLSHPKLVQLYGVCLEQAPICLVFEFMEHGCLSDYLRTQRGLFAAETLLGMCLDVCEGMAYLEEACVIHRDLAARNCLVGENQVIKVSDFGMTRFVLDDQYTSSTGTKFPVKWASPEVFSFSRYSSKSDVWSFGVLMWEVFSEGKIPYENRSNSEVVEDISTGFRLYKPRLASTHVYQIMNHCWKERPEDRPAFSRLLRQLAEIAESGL
# Experiment: ITK inhibitor binding potency (LanthaScreen TR-FRET competitive binding assay)
# Details: pre-incubation condition not stated; read-out: ITK Inhibition IC50
# Excerpt: The ability of candidate compounds to interact with ITK is quantitated by a competitive binding assay using the LanthaScreen technology developed by Life Technologies. This assay is based on the binding of a proprietary, Alexa Fluor® 647-labeled, ATP-competitive kinase inhibitor (kinase tracer-236) to the ITK expression construct in the presence of a Europium-conjugated antibody, resulting in a FRET (fluorescence resonance energy transfer) signal. Displacement of the kinase tracer by compound results in a lower emission ratio upon excitation of the Europium chelate. Candidate compounds are designed as potential irreversible inhibitors of ITK, capable of ligating to an active site cysteine residue resulting in time dependent covalent binding. The time dependent nature of irreversible inhibition is investigated by performing the binding assay with and without a pre-incubation of compound and ITK. […] The inhibitory potency of candidate compounds is measured in 20 mM HEPES pH 7.5, 10 mM MgCl2, 0.01% BSA, 0.0005% Tween-20, and 2% DMSO in the presence of 10 nM ITK, 2 nM Eu-anti-GST antibody, and 50 nM kinase tracer-236 using a 384-well plate format. Background signal is defined in the absence of ITK and uninhibited signal is defined in the presence of vehicle (2% DMSO) alone. Compounds were evaluated in an 11-point dose-response ranging from 20 uM to 0.34 nM. The binding assays are performed under two preincubation Conditions to evaluate time dependence of inhibition. For the pre-incubation assay, ITK and Eu-anti-GST antibody are pre-incubated with compound or vehicle for two hours prior to the addition of kinase tracer. The non-preincubated assay is run under Conditions where ITK and Eu-anti-GST antibody are added to a mixture of compound and kinase tracer. IC50 values of compounds are determined using a 4 parameter logistical fit of emission ratio as a function of the concentration of compound.
row,SMILES,IC50 [µM]
1,"O=C(CCl)N1CCC[C@@H](Nc2cc(-c3ccncc3)c[nH]c2=O)C1 [Example 1, (R)-5-((1-(2-Chloroacetyl)piperidin-3-yl)amino)-[3,4′-bipyridin]-6(1H)-one]",≤ 1
2,"C=CC(=O)N1CCC[C@@H](Nc2cc(-c3ccncc3)c[nH]c2=O)C1 [Example 2, (R)-5-((1-Acryloylpiperidin-3-yl)amino)-[3,4′-bipyridin]-6(1H)-one]",> 1
3,"C=CC(=O)N1CC[C@@H](Nc2cc(-c3ccncc3)c[nH]c2=O)C1 [Example 3, (R)-5-((1-Acryloylpyrrolidin-3-yl)amino)-[3,4′-bipyridin]-6(1H)-one]",> 1
4,"O=C(CCl)N1CC(Nc2cc(-c3ccncc3)c[nH]c2=O)C1 [Example 4, 5-((1-(2-Chloroacetyl)azetidin-3-yl)amino)-[3,4′-bipyridin]-6(1H)-one]",≤ 1
5,"C=CC(=O)N1CC(Nc2cc(-c3ccncc3)c[nH]c2=O)C1 [Example 5, 5-((1-Acryloylazetidin-3-yl)amino)-[3,4′-bipyridin]-6(1H)-one]",≤ 1
6,"C/C=C/C(=O)N1CC(Nc2cc(-c3ccncc3)c[nH]c2=O)C1 [Example 6, (E)-5-((1-(But-2-enoyl)azetidin-3-yl)amino)-[3,4′-bipyridin]-6(1H)-one]",> 1
7,"C=CC(=O)N1CC(Nc2cc(-c3ccnc(C)c3)c[nH]c2=O)C1 [Example 7, 5-((1-acryloylazetidin-3-yl)amino)-2′-methyl-[3,4′-bipyridin]-6(1H)-one]",≤ 1
8,"C=CC(=O)N1CC(Nc2cc(-c3cncc(OC)n3)c[nH]c2=O)C1 [Example 8, 3-((1-acryloylazetidin-3-yl)amino)-5-(6-methoxypyrazin-2-yl) pyridin-2(1H)-one]",≤ 1
9,"C=CC(=O)N1CC(Nc2cc(-c3ccnc(NC)c3)c[nH]c2=O)C1 [Example 9, 5-((1-acryloylazetidin-3-yl)amino)-2′-(methylamino)-[3,4′-bipyridin]-6(1H)-one]",≤ 1
10,"C=CC(=O)N1CC(Nc2cc(-c3ccnc(NC)n3)c[nH]c2=O)C1 [Example 10, 3-((1-acryloylazetidin-3-yl)amino)-5-(2-(methylamino)pyrimidin-4-yl)pyridin-2(1H)-one]",≤ 1
11,"C=CC(=O)N1CC(Nc2cc(-c3cncc(NC)n3)c[nH]c2=O)C1 [Example 11, 3-((1-acryloylazetidin-3-yl)amino)-5-(6-(methylamino)pyrazin-2-yl) pyridin-2(1H)-one]",≤ 1
12,"CNC(=O)/C=C/C(=O)N1CC(Nc2cc(-c3ccncc3)c[nH]c2=O)C1 [Example 12, (E)-N-methyl-4-oxo-4-(3-((6-oxo-1,6-dihydro-[3,4′-bipyridin]-5-yl)amino)azetidin-l-yl)but-2-enamide]",> 1

# Results, then the molecule that gave them:
row,IC50 [µM],SMILES
1,≤ 1,"CNC/C=C/C(=O)N1CC(Nc2cc(-c3ccncc3)c[nH]c2=O)C1 [Example 13, (E)-5-((1-(4-(methylamino)but-2-enoyl)azetidin-3-yl)amino)-[3,4′-bipyridin]-6(1H)-one]"
2,> 1,"CNc1cc(-c2c[nH]c(=O)c(NC3CN(C(=O)/C=C/c4ccccc4)C3)c2)ccn1 [Example 14, (E)-5-((1-Cinnamoylazetidin-3-yl)amino)-2′-(methylamino)-[3,4′-bipyridin]-6(1H)-one]"
3,> 1,"CNc1cc(-c2c[nH]c(=O)c(NC3CN(C(=O)/C=C/Cc4ccccc4)C3)c2)ccn1 [Example 15, (E)-2′-(Methylamino)-5-((1-(4-phenylbut-2-enoyl)azetidin-3-yl)amino)-[3,4′-bipyridin]-6(1H)-one]"
4,≤ 1,"C=CC(=O)N1CC(Nc2cc(-c3ccnc(C(=O)Nc4ccc(C(C)C)c(C)c4)c3)c[nH]c2=O)C1 [Example 16, 5-((1-Acryloylazetidin-3-yl)amino)-N-(4-isopropyl-3-methylphenyl)-6-oxo-1,6-dihydro-[3,4′-bipyridine]-2′-carboxamide hydrochloride]"
5,> 1,"Cc1cc(NC(=O)c2cc(-c3c[nH]c(=O)c(NC4CN(C(=O)CCl)C4)c3)ccn2)ccc1C(C)C [Example 17, 5-((1-(2-Chloroacetyl)azetidin-3-yl)amino)-N-(4-isopropyl-3-methylphenyl)-6-oxo-1,6-dihydro-[3,4′-bipyridine]-2′-carboxamide formate]"
6,≤ 1,"CC/C=C/C(=O)N1CC(Nc2cc(-c3ccnc(NC)c3)c[nH]c2=O)C1 [Example 18, (E)-2′-(Methylamino)-5-((1-(pent-2-enoyl)azetidin-3-yl)amino)-[3,4′-bipyridin]-6(1H)-one]"
7,≤ 1,"CNc1cc(-c2c[nH]c(=O)c(NC3CN(C(=O)/C=C/CN(C)C)C3)c2)ccn1 [Example 19, (E)-5-((1-(4-(Dimethylamino)but-2-enoyl)azetidin-3-yl)amino)-2′-(methylamino)-[3,4′-bipyridin]-6(1H)-one]"
8,≤ 1,"CNc1cc(-c2c[nH]c(=O)c(NC3CN(C(=O)/C=C/CCOc4ccccc4)C3)c2)ccn1 [Example 20, (E)-2′-(Methylamino)-5-((1-(5-phenoxypent-2-enoyl)azetidin-3-yl)amino)-[3,4′-bipyridin]-6(1H)-one]"

# Tested on: ITK mediated IL-2 release in Jurkat cells
# Experiment: ITK IL-2 release assay in CD3/CD28-stimulated Jurkat cells
# Type: cell-based
# Details: Homo sapiens, CD3/CD28 Dynabeads stimulation, overnight, read-out: IL-2 Production Inhibition IC50
# Protocol: This assay was based on the ability of a compound to inhibit ITK mediated IL-2 release. Jurkat cells were placed in wells of a 96-well plate at 500,000 per well in 120 μL medium (same as above). Compounds were added as 15 μL per well of 10× working stock solutions in medium with 1% DMSO (or medium with 1% DMSO for Controls) and placed in a 37° C. incubator for 2 hours. Stimulation used CD3/CD28 Dynabeads to activate the T cell receptor and mimic antigen-presenting cells. Beads were added at a ratio of 1 bead per cell, in 15 μL medium (or medium alone for unstimulated Control). After overnight incubation, the plates were centrifuged at 290×g for 5 min, then 100 μL per well of supernatant medium removed for IL-2 cytokine assay. To determine cell viability, to the remaining well Contents 50 μL of CellTiter-Glo reagent was added and luminescence determined. The IL-2 cytokine assay utilized an electochemiluminescence-based ELISA.
row,IC50 [µM],SMILES
1,≤ 1,"C=CC(=O)N1CC(Nc2cc(-c3ccnc(NC)c3)c[nH]c2=O)C1 [Example 9, 5-((1-acryloylazetidin-3-yl)amino)-2′-(methylamino)-[3,4′-bipyridin]-6(1H)-one]"
2,≤ 1,"C=CC(=O)N1CC(Nc2cc(-c3ccnc(NC)n3)c[nH]c2=O)C1 [Example 10, 3-((1-acryloylazetidin-3-yl)amino)-5-(2-(methylamino)pyrimidin-4-yl)pyridin-2(1H)-one]"
3,≤ 1,"C=CC(=O)N1CC(Nc2cc(-c3cncc(NC)n3)c[nH]c2=O)C1 [Example 11, 3-((1-acryloylazetidin-3-yl)amino)-5-(6-(methylamino)pyrazin-2-yl) pyridin-2(1H)-one]"
